We go through 2 compounds from patent US20210401867A1, “PHOTOSENSITIZERS AND METHOD OF TREATING CANCER USING THE SAME” (Cheng-Wen Wu, priority 2018, published 2021).

What all share (format): cell-based, human
The test system of data set [1] is FaDu cells. As to the kind of experiment: colony forming assay of FaDu cells. Here is the method:
(§1) In the following examples, FaDu cells are used in cell viability tests and colony forming assays. FaDu cells (ATCC HTB-43) is a human head-and-neck cell line with squamous phenotype. FaDu cells used in the following examples are cultured in DMEM medium supplemented with 10% fetal bovine serum (FBS) and 1% penicillin/streptomycin, in a humidified incubator maintained at 37° C. and 5% CO2.
Referring to FIGS. 9A-C, an in vitro cell viability chart of FaDu cells when treated with BrdU alone, NR alone, and BrdU and NR, is provided in accordance with an exemplary embodiment of the present disclosure. NR treatments in FIGS. 9A, 9B, and 9C are similar with the experiment procedures for FIG. 6. In samples where FaDu cells are treated with BrdU and NR, FaDu cells are incubated with BrdU for 24 hours before irradiated with NR. Referring to FIG. 9B, a colony forming assay result of FaDu cells after the treatments described in […], is provided in accordance with an exemplary embodiment of the present disclosure. The colony forming assay in FIG. 9B are proceeded as following: FaDu cells treated by different regimens are grouped and seeded in 6-well-plates with 1000 cells in each of the well and cultured for 14 days; the culture medium was replaced every 3 to 4 days; in the end of the experiment, the cells are washed twice with PBS and fixed with 4% paraformaldehyde for 15 minutes and stained with 0.1% crystal violet. Referring to FIG. 9C, a quantitative result of the colony forming assay in FIG. 9B is provided in accordance with an exemplary embodiment of the present disclosure. In FIG. 9C, the results of the colony forming assay are quantified by microscopic examination by stereomicroscope.

For data set [2], the system named is FaDu cells. As to the kind of experiment: in vitro cell viability of FaDu cells. How it is done: as §1
Referring to FIG. 4, an in vitro cell viability chart of FaDu cells when treated with BrdU is provided in accordance with an exemplary embodiment of the present disclosure. FaDu cells are treated with different dosages of BrdU for 24 hours and then FaDu cells are analyzed daily for cell viability. FaDu cells are derived from pharynx squamous cell carcinoma of human, and are resistant to radiation. 3×10^5 FaDu cells are seeded in 6-cm-plates. After 24 hours, different dosages of BrdU are added into the culture medium and incubated with the FaDu cells for another 24 hours.
Referring to FIG. 5, an in vitro cell viability chart of FaDu cells when treated with IdU is provided in accordance with an exemplary embodiment of the present disclosure. FaDu cells are treated with different dosages of IdU for 24 hours and then FaDu cells are analyzed for cell viability. FaDu cells are seeded in plate and treated with IdU by similar experiment procedures with FIG. 4.
Referring to FIG. 6, an in vitro viability chart of FaDu cells when irradiated by NR is provided in accordance with an exemplary embodiment of the present disclosure. FaDu cells are treated with different radiation doses of NanoRay radiation (NR). FaDu cells are trypsinized and collected by centrifugation. The centrifuged FaDu cells are then re-suspended in PBS in a 1.5-ml tube with 5×10^4 cells in 20 μL. The tube containing centrifuged FaDu cells are then subjected to different radiation doses of NR. […] From FIGS. 4, 5 and 6, it is concluded that an optimized dosage for BrdU and IdU for in vivo experiments would be 10 μM, and the optimized radiation dose for NR is within 4 Gy.

Data set [3] relates to FaDu cells. Description: flow cytometry analysis of BrdU/IdU DNA incorporation in FaDu cells. To be noted: 24 hours. How it is done: Referring to FIG. 7A, a flow cytometry analysis of FaDu cells without BrdU treatment is provided in accordance with an exemplary embodiment of the present disclosure. FaDu cells are analyzed by flow cytometry using BrdU Flow Kits (BD Pharmingen), in absence of BrdU. FaDu cells are trypsinized, washed, fixed, permeablized, blocked, and then treated with DNase I (5 U/10^6 cells/100 μL) for 1 hour at 37° C. FaDu cells are then hybridized with anti-BrdU antibodies for 1 hour at room temperature. After several washes, FaDu cells are analyzed for fluorescent signals with LSR II Analytic Flow Cytometer (BD Biosciences). […] Referring to FIGS. 7B-D, flow cytometry analyses of FaDu cells when treated with BrdU are provided in accordance with an exemplary embodiment of the present disclosure. In FIGS. 7B-D, FaDu cells are analyzed by flow cytometry with the same experiment procedures for FIG. 7A. FaDu cells in FIGS. 7B, 7C, and 7D are respectively treated with 0.5 μM BrdU, 1 μM BrdU, and 10 μM BrdU for 24 hours. […] The DNA incorporation efficiency of BrdU is 1 μM to more than 90% of FaDu cells, therefore 1 μM would be used in the subsequent experiment as an optimized dosage of BrdU. Referring to FIG. 8A, a flow cytometry analysis of FaDu cells without IdU treatment is provided in accordance with an exemplary embodiment of the present disclosure. FaDu cells are analyzed by flow cytometry using BrdU Flow Kits (BD Pharmingen), in absence of IdU. FaDu cells are treated with similar experiment procedures as in FIG. 7A, but anti-BrdU antibodies are replaced with anti-IdU antibodies. For the detection of IdU-incorporated cells, FaDu cells being treated by anti-IdU antibodies are then hybridized with a secondary antibody conjugated by proper fluorescent dye for 1 hour at room temperature. […] Referring to FIGS. 8B-D, flow cytometry analyses of FaDu cells when treated with IdU are provided in accordance with an exemplary embodiment of the present disclosure. FaDu cells are analyzed by flow cytometry with similar experiment procedures as in 7A. […] The DNA incorporation efficiency of IdU is 10 μM to more than 90% of FaDu cells, therefore 10 μM would be used in the subsequent experiment as an optimized dosage of IdU.
(In general: A flow cytometer gives signals particle by particle.)

Data set [4] has as its system FaDu cells. Description: in vitro cell viability of FaDu cells. Conditions: for synergy of combination with RS2000 versus RS2000 alone: conventional X-ray RS2000, FaDu cells.
Where [5] appears, read: 10 μM IdU combined with 1 Gy of 33 keV NR.

For `O=c1[nH]c(=O)n([C@H]2C[C@H](O)[C@@H](CO)O2)cc1I` [IdU, iododeoxyuridine], in the data set on FaDu cells [1] (setting [5]), the “colony forming inhibition versus IdU or NR alone” value is listed as “higher”. Further, the “cytotoxicity of the combination with NR” value in the data set on FaDu cells [2] is given as “strong synergistic cytotoxicity”. The “cell viability versus IdU or NR alone” value in the data set on FaDu cells [2] (setting [5]) is listed as “lower”. Further, the values for the FaDu cells labeled entry in the data set on FaDu cells [3] (IdU 0.5 μM as printed (FIG. 8B)) and with FaDu cells [3] (more than 10 μM of IdU) were “about 84%” and “more than 90%”, respectively. In addition, the “synergy of combination with RS2000 versus RS2000 alone” value with FaDu cells [4] is “does not have synergistic effects”.
With `O=c1[nH]c(=O)n([C@H]2C[C@H](O)[C@@H](CO)O2)cc1Br` [BrdU, bromodeoxyuridine], the colony forming inhibition with FaDu cells [1] (1 μM BrdU combined with 1 Gy of 14 keV NR) came out at 57.5%. For the same compound, the “cytotoxicity of the combination with NR” value with FaDu cells [2] is reported as “strong synergistic cytotoxicity”. In addition, the toxicity entry in the data set on FaDu cells [2] (FaDu cells, 1 μM BrdU) is given as “almost no toxicity”. Also, the FaDu cells labeled result was “about 83%” in the data set with FaDu cells [3] (0.5 μM BrdU) and “more than 90%” with FaDu cells [3] (more than 1 μM of BrdU). Moreover, the cell viability entry in the data set with FaDu cells [4] (1 μM BrdU and 1Gy of RS2000 (conventional X-ray)) is “lower cell viability”. The “synergy of combination with RS2000 versus RS2000 alone” value in the data set with FaDu cells [4] is recorded as “does not have synergistic effects”.
